Laboratory results published in PMC3038857, “Using Nuclear Receptor Activity to Stratify Hepatocarcinogens” (PLoS ONE, 2011).
Read-outs that look alike come from different tables or passages of the source.

Experiments:
Mouse Liver = details: ref ToxRefDB, cited from earlier work
[1] = target: T1, ESRRG (estrogen-related receptor gamma) (Homo sapiens, UniProt P62508); experiment: ATG_ERRg_TRANS: Factorial reporter gene assay (HepG2); format: cell-based; parameters: scale not given here
T1 construct: expressed in transfected cells; host or cells: HepG2
T1 sequence (P62508 1-458): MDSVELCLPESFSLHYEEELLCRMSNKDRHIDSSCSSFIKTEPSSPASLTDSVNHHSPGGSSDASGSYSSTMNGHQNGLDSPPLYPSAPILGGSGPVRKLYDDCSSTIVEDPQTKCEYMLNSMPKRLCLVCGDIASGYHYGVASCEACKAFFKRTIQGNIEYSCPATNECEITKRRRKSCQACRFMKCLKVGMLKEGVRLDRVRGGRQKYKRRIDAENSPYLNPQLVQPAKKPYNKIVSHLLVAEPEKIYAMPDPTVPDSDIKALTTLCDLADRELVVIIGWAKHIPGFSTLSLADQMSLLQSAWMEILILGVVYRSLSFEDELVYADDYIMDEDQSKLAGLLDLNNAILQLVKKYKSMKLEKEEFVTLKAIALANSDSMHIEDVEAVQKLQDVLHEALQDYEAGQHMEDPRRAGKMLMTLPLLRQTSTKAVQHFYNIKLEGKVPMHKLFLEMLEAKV
Method: (§1) A multiple reporter transcription unit (MRTU) library consisting of 48 transcription factor binding sites was transfected into the HepG2 human liver hepatoma cell line. In addition to the cis-acting reporter genes (CIS), a modification of the approach was used to generate a trans-system (TRANS) with a mammalian one-hybrid assay consisting of an additional 25 MRTU library reporting the activity of nuclear receptor super-family members. […] These assays were performed by Attagene Inc. (Morrisville NC) under contract to EPA.
(§2) In addition to the cis-acting reporter genes (CIS), a modification of the approach was used to generate a trans-system (TRANS) with a mammalian one-hybrid assay consisting of an additional 25 MRTU library reporting the activity of nuclear receptor super-family members. […] Chemicals were then tested in the CIS and TRANS assays at seven concentrations starting at the MTC and followed by three-fold serial dilutions. These assays were performed by Attagene Inc. (Morrisville NC) under contract to EPA. Detailed description of the methods, data and analysis methods for this dataset will be presented in a separate publication.

[2] = target: T2, ESRRA (estrogen-related receptor alpha) (Homo sapiens, UniProt P11474); experiment: ATG_ERRa_TRANS: Factorial reporter gene assay (HepG2); format: cell-based; details: scale not given, looks like -log10 of molar active concentration, 0 = no activity
T2 construct: expressed in transfected cells; host or cells: HepG2
T2 sequence (P11474 1-423): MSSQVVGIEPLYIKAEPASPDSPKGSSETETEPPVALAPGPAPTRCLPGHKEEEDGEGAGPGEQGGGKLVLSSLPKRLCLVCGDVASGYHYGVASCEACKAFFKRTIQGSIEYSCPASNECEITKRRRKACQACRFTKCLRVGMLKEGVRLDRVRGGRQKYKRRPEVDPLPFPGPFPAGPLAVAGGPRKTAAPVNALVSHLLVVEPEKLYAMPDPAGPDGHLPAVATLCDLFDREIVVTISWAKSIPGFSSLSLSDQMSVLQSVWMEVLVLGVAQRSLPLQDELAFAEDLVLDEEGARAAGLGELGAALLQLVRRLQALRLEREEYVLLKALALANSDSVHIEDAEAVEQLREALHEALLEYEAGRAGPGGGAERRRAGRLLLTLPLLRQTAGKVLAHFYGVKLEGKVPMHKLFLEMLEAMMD
Method: as §1, §2

FXR (NR1H4) = target: T3, FXR (NR1H4) (Homo sapiens, UniProt Q96RI1); experiment: ATG_FXR_TRANS: Factorial reporter gene assay (HepG2); format: cell-based; parameters: expressed in transfected cells; host or cells: HepG2; scale not given here; details: scale not given, looks like -log10 of molar active concentration, 0 = no activity
T3 sequence (Q96RI1 1-486): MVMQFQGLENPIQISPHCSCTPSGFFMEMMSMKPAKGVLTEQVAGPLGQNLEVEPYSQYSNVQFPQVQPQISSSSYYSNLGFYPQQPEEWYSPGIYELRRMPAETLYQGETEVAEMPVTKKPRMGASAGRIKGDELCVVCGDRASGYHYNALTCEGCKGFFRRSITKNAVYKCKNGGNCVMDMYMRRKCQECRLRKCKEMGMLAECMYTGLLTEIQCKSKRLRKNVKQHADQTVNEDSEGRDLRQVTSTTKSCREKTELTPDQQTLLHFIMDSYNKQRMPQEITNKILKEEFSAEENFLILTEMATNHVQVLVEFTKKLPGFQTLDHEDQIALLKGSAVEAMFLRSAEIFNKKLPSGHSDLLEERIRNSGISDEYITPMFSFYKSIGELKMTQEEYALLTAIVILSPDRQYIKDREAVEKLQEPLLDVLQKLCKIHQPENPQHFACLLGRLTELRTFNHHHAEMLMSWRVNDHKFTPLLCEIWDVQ
Method: as §1, §2

[3] = mouse chronic study, liver, preneoplastic lesion, coded 6 / Inf / 0, code not explained here
[4] = HepG2, scale not given, looks like -log10 of molar active concentration, 0 = no activity

Row | SMILES | CHR_Mouse_Liver_2_PreneoplasticLesion (Mouse Liver; [3]) | ATG_ERRg_TRANS [1, 4] | ATG_ERRa_TRANS [2] | ATG_FXR_TRANS (FXR (NR1H4)) | other results
1 | C=CCOC(=O)C(C)(C)OC(=O)c1cc(-n2c(=O)cc(C(F)(F)F)n(C)c2=O)ccc1Cl [r47] | 6 | 0 | 0 | – | –
2 | CC1=C(C(=O)Nc2ccccc2)SCCO1 [r53] | – | 0 | 0 | 0 | –
3 | O=C(Nc1ccccc1-c1ccc(Cl)cc1)c1cccnc1Cl [r42] | – | 0 | 0 | – | –
4 | COc1ccc(-c2ccccc2)cc1NNC(=O)OC(C)C [r38] | 6 | 4.469 | 0 | 0 | –
5 | N#Cc1cc(Br)c(O)c(Br)c1 [r44] | 6 | 0 | 0 | 0 | –
6 | CC(C)OC(=O)Nc1cccc(Cl)c1 [r59] | 6 | 0 | 0 | 0 | –
7 | CCC(C)n1c(=O)[nH]c(C)c(Br)c1=O (stereo not shown) [r43] | 6 | 0 | 0 | 0 | –
8 | COc1nc(C)nc(NC(=O)NS(=O)(=O)c2ccccc2Cl)n1 [r62] | – | 0 | 0 | – | –
9 | CC(C)N1C(=O)c2ccccc2NS1(=O)=O [r37] | 6 | 0 | 0 | – | –
10 | CC(C)Oc1cc(-n2nc(C(C)(C)C)oc2=O)c(Cl)cc1Cl [row 225] | – | – | – | – | CHR_Mouse_Liver_2_PreneoplasticLesion (Mouse Liver; chronic mouse study, liver): 6
11 | CCOC(=O)C(Cl)Cc1cc(-n2nc(C)n(C(F)F)c2=O)c(F)cc1Cl (stereo not shown) [r54] | – | – | – | 0 | –
12 | CCC(C)Nc1c([N+](=O)[O-])cc(C(C)(C)C)cc1[N+](=O)[O-] (stereo not shown) [r48] | – | 0 | 0 | – | –
13 | O=C1C2CC=CCC2C(=O)N1SC(Cl)(Cl)Cl (stereo not shown) [r51] | – | 0 | 0 | – | –
14 | CC(C)N1C(=O)N(c2ccccc2)CS/C1=N\C(C)(C)C [r45] | 6 | 0 | 0 | – | –
15 | N#Cc1c(Cl)c(Cl)c(Cl)c(C#N)c1Cl [r58] | – | – | – | 0 | –
16 | CC(C)(c1ccc(O)cc1)c1ccc(O)cc1 [r40] | – | 0 | 0 | – | –
17 | Cc1c(COC(=O)C2C(/C=C(\Cl)C(F)(F)F)C2(C)C)cccc1-c1ccccc1 (stereo not shown) [r39] | 6 | – | – | 0 | –
18 | CCc1nn(C)c(C(=O)NCc2ccc(C(C)(C)C)cc2)c1Cl [r291] | – | – | – | – | ATG_ERRg_TRANS ([1]; HepG2 reporter): 5.301
19 | CCCC1COC(Cn2cncn2)(c2ccc(Cl)cc2Cl)O1 (stereo not shown) [r262] | – | – | – | – | CHR_Mouse_Liver_2_PreneoplasticLesion (Mouse Liver; mouse, chronic study): 6
20 | Cc1ccccc1CO[C@@H]1C[C@@]2(C(C)C)CC[C@]1(C)O2 [r64] | 6 | – | – | – | –
21 | COC(=O)c1ccccc1CS(=O)(=O)NC(=O)Nc1nc(OC)cc(OC)n1 [r33] | – | 0 | 0 | 0 | –
22 | COc1cc(Cl)c(OC)cc1Cl [r57] | – | 0 | 0 | – | –
23 | CNC(=O)Oc1cccc2ccccc12 [r52] | 6 | – | – | 0 | –
24 | CC(C)=CC1C(C(=O)OCc2coc(Cc3ccccc3)c2)C1(C)C (stereo not shown) [r280] | – | – | – | – | CHR_Mouse_Liver_2_PreneoplasticLesion (Mouse Liver; chronic study, mouse liver): 6
25 | OB(O)O [r41] | – | 0 | 0 | 0 | –
26 | CCCCOCN(C(=O)CCl)c1c(CC)cccc1CC [r46] | – | 0 | 0 | 0 | –
27 | COc1nc(C)nc(NC(=O)NS(=O)(=O)c2ccccc2Cl)n1 [r63] | – | 0 | 0 | – | –
28 | CCSC(=O)N(CC(C)C)CC(C)C [r49] | – | 0 | 0 | – | –
